Measured values taken from patent US12428417B2, “Inhibitors of macrophage migration inhibitory factor” (The Brigham and Women's Hospital, Inc., priority 2019, dated 2025).

Tests used:
[1] = test system: P. falciparum strain NF54 attB parasites; assay: Invasion assay: synchronized late-stage schizonts added to uninfected RBCs, parasitemia measured by FACS; type: cell-based
Method: Experimental protocol: Synchronized late-stage schizonts were added at 1% initial parasitemia to uninfected recipient normal RBCs and parasitemia was measured by FACS. Parasitemia is normalized to the control no-inhibitor condition. Data analyzed by one-way ANOVA. Statistically significant differences are indicated with a star over the bar. Asterisk (*) indicates p<0.01 compared to control (no-inhibitor).
FIG. 2 describes results of invasion assay in presence of titrated amounts of MIF inhibitors. […] All data is normalized to the control no-inhibitor condition. […] Asterisk (*) indicates p<0.01 compared to control (no-inhibitor).
(§1) P. falciparum strain NF54 attB parasites (Dr. Niles, MIT). Synchronized late-stage schizonts were added at 1% initial parasitemia to uninfected recipient normal RBCs and parasitemia was measured by FACS (FIG. 2). […] Given that ibudilast has inhibitory effect on the function of MIF as well as phosphodiesterase 4 (PDE4) in the RBC, it was evaluated whether specific inhibitors of MIF and PDE4 would cause major decline in parasitemia at similar dosages. While inhibition of parasite growth was not observed due to abolishing the function of PDE4 (data not shown), inhibition of the tautomerase activity of MIF in vitro by an irreversible inhibitor of MIF—4-IPP—caused a significant decline in the levels of parasitemia (FIG. 2).

[2] = test system: Pf-infected RBCs; assay: Confocal microscopy of Pf-infected RBCs with BODIPY TR lipophilic intracellular staining (egress); type: cell-based, P. falciparum; conditions: treated Pf-infected RBCs; FIG. 3
Source text: One plane of confocal microscopy z-stack is shown.

[3] = test system: P. falciparum infected RBC cultures; assay: FACS analysis of infected RBC cultures (schizont stage); type: cell-based; conditions: 48 to 60 hours post infection; data not shown
Method: as §1

For `COC(=O)CC1CC(c2ccc(O)cc2)=NO1` (stereo not shown) [ISO-1], the “invasion at a range of concentrations” value ([1]; data not shown) was “did not reduce the invasion”.

For `Ic1cc(-c2ccccc2)ncn1` [Example 4-IPP], the parasitemia in vitro ([1]; 1% initial parasitemia, normal RBCs, FIG. 2) was “significantly lowered parasitemia”, the “parasitemia after removal of inhibitor 6 h post-infection” value ([1]; inhibitor removed 6 h post-infection) was “did not recover the parasitemia” and the “parasitemia after treating only the recipient RBCs before infection” value ([1]; recipient RBCs treated 3 h and 6 h, inhibitor washed off before infection) was “parasitemia at the level of the control condition”. For the same molecule, the “state of mature schizonts (egress)” value [2] was “mature schizonts remain encapsulated” and the “percentage of mature schizont” value [3] was “significant increase”.

B1: hu-MIF: exogenous human macrophage migration inhibitory factor added in the invasion assay (protein, UniProt P14174 2-115, looked up)
Macrophage migration …: PMFIVNTNVPRASVPDGFLSELTQQLAQATGKPPQYIAVHVVPDQLMAFGGSSEPCALCSLHSIGKIGGAQNRSYSKLLCGLLAERLRISPDRVYINYYDMNAANVGWNNSTFA
In the case of B1, the “parasitemia in presence of exogenous protein” value ([1]; cells preincubated for up to 6 h, data not shown) is reported as “did not show reduced or increased parasitemia”.
